Measurements: patent US20200246364A1, “MEDICAL APPLICATION OF COMPOSITION OF FRUCTOSE-1,6-BISPHOSPHATE AND BLOOD CONCENTRATION STABILIZER THEREOF” (ZHEJIANG UNIVERSITY, priority 2017, published 2020)

Tests used:
glioma cells KNS-89 = test: Lactic acid released by glioma cells (glycolysis); format: cell-based, human; conditions: KNS-89, 1.6 mM
Experimental: (§1) Human glioma cell strains (U87-MG, KNS-89, SHG-44) were respectively incubated in culture media containing 0.8 mM of trisodium fructose-1,6-bisphosphate salt, and 1.6 mM of trisodium fructose-1,6-bisphosphate salt, and 1.6 mM of 2-deoxyglucose, and the contents of lactic acid as the final glycolytic product released by the cells in the culture media were measured after 12 h, 24 h, 36 h, and 48 h. […] Human glioma cell strain (U87-MG) was incubated in the culture medium containing 0.8 mM of trisodium fructose-1,6-bisphosphate salt for 1 h, 3 h, 6 h, 12 h, 24 h, 36 h, and 48 h, and level changes of key metabolic enzymes in the glycolytic pathway of cells were measured by Western Blot at the respective time points.

glioma cells SHG-44 = test: Lactic acid released by glioma cells (glycolysis); format: cell-based, human; conditions: SHG-44, 1.6 mM
Experimental: as §1

glioma cells U87-MG = test: Lactic acid released by glioma cells (glycolysis); format: cell-based, human; conditions: 1.6 mM
Experimental: as §1

[1] = tested on: mouse liver cancer cells H22; test: Tumor growth of mouse liver cancer H22 model; format: in vivo, ICR mice; conditions: FBP 500 mg/kg, i.g., 7 days; for Tumor weight: three times per day; for inhibition of tumor growth (inhibition ratio): H22, metformin 150 mg/kg, sitagliptin 20 mg/kg
Experimental: The treatment was performed three times per day, in which metformin or sitagliptin was administrated 0.5 h before trisodium fructose-1,6-bisphosphate. This is repeated for 7 days, and situations of the animals during the experiments were observed. The animals were sacrificed 24 hours after the last treatment, the tumor masses were taken out and weighed, and the average tumor weight in each group of animals was used as an efficacy index.

[2] = Weight gain and fat accumulation caused by high-fat diet; format: in vivo, ICR mice; conditions: high-fat diet mice
Experimental: 40 ICR male mice (17-19 g/per mouse) were divided into 2 groups. […] The animals of the normal group (Naive) were still fed with the basic feed, and the model animals were equally divided into 4 groups and were further fed with the high-fat diet. In addition, according to the amount of water the mice had consumed, a certain dose of the agent was dissolved in drinking water. The animals in the model group (Model) were fed with the purified water, the animals in the fructose-1,6-bisphosphate group were fed with water containing 0.18% of 8-molecule hydrate of sodium fructose-1,6-bisphosphate (equivalent to FBP 300 mg/kg), the animals in the sitagliptin group were fed with water containing 0.012% of sitagliptin phosphate salt (equivalent to STG 20 mg/kg), and the animals in the combination group were fed with water containing FBP 500 mg/kg+STG 20 mg/kg. The treatment lasted continuously for 6 weeks, the body weight, food intake and water intake were measured per week, the body weight and body length (CM) were measured on the last day of the last week, and a Lee's INDEX (Lee's INDEX=body weight (g)^(1/3) * 1000/body length (cm)) was calculated to evaluate the state of animal obesity. Then, the animals were sacrificed by cervical vertebra dislocation and the mice were dissected, the epididymal fat pad was taken and weighed, and a fat coefficient was calculated to further investigate the degree of obesity of the mice.

HCT-8 = test: Cell viability, Sulforhodamine B (SRB) staining; format: cell-based, human; conditions: HCT-8, 72 h, FBP 0.8 mM
Experimental: (§2) Human intestinal cancer cell strains SW620 and HCT-8, which had been incubated for 24 hours, were respectively incubated in a medium containing 0.8 mM of trisodium fructose-1,6-bisphosphate, a medium containing 0.2 mM of metformin/100 μM of sitagliptin, and a medium containing 0.8 mM of trisodium fructose-1,6-bisphosphate and 0.2 mM of metformin/100 μM of sitagliptin for 72 h. A control group (Con) was not treated with the agent. Cell viability was determined by Sulforhodamine B (SRB) staining analysis method.

[3] = tested on: fructose-1,6-bisphosphatase 1; test: Kidney protein level of fructose-1,6-bisphosphatase 1 after 14 days treatment (Western Blot); format: in vivo; conditions: SD rats, 14 days i.g.; FBP 500 mg/kg, metformin 150 mg/kg, sitagliptin 20 mg/kg; vs control group
Experimental: 180-200 g SD rats were divided into 4 groups: a saline control group, a trisodium fructose-1,6-bisphosphate hydrate group (500 mg/kg, i.g), a metformin group (150 mg/kg, i.g) or a sitagliptin group (20 mg/kg, i.g), and a trisodium fructose-1,6-bisphosphate and metformin or sitagliptin combination group, 5 rats in each group. All groups were intragastrically treated, metformin or sitagliptin was administrated 0.5 h before fructose-1,6-bisphosphate, and this was repeated in 14 consecutive days. At 3 hours after the last intragastric treatment with fructose-1,6-bisphosphate, rat blood was collected to detect the blood concentration of FBP, kidney tissue was taken and the protein level of fructose-1,6-bisphosphatase 1 was measured by Western Blot.

melanoma B16 cell = test: Cell viability, Sulforhodamine B (SRB) staining; conditions: Mus musculus, B16, 72 h, read-out: cell viability inhibited
Experimental: Mouse melanoma B16 cells, which had been incubated for 24 hours, were incubated in a medium containing 0.8 mM of trisodium fructose-1,6-bisphosphate, a medium containing 20 μM of sitagliptin, and a medium containing 0.8 mM of trisodium fructose-1,6-bisphosphate and 20 μM of sitagliptin for 72 h. A control group (Con) was not treated with the agent. Cell viability was determined by Sulforhodamine B (SRB) staining analysis method.

Huh-7 = test: Cell viability, Sulforhodamine B (SRB) staining; format: cell-based, human; conditions: Huh-7, 72 h, FBP 0.8 mM
Experimental: (§3) Human liver cancer cell strains Bel-7402 and huh-7, which had been incubated for 24 hours, were respectively incubated in a medium containing 1.6 mM or 0.8 mM of trisodium fructose-1,6-bisphosphate, a medium containing 0.2 mM of metformin or 25 μM of sitagliptin, and a medium containing 0.8 mM of trisodium fructose-1,6-bisphosphate and 0.2 mM of metformin/25 μM of sitagliptin for 72 h. A control group (Con) was not treated with the agent. Cell viability was determined by Sulforhodamine B (SRB) staining analysis method.

SW620 = test: cells; conditions: Homo sapiens, SW-620, 72 h, read-out: cell viability (Con = 100)
Experimental: as §2

Bel-7402 = test: cells; conditions: Homo sapiens, Bel-7402, 72 h
Experimental: as §3

O=CC[C@@H](O)[C@H](O)[C@H](O)CO [2-DG, 2-deoxy-D-glucose]
Relative levels of lactic acid (compared with the control group) (glioma cells KNS-89; 12 h): 0.31 ± 0.09
Relative levels of lactic acid (compared with the control group) (glioma cells KNS-89; 24 h): 0.27 ± 0.13
Relative levels of lactic acid (compared with the control group) (glioma cells KNS-89; 36 h): 0.31 ± 0.02
Relative levels of lactic acid (compared with the control group) (glioma cells SHG-44; 12 h): 0.76 ± 0.15
Relative levels of lactic acid (compared with the control group) (glioma cells SHG-44; 24 h): 0.62 ± 0.13
Relative levels of lactic acid (compared with the control group) (glioma cells SHG-44; 36 h): 0.57 ± 0.04
Relative levels of lactic acid (compared with the control group) (glioma cells U87-MG; 12 h): 0.48 ± 0.16
Relative levels of lactic acid (compared with the control group) (glioma cells U87-MG; 24 h): 0.31 ± 0.07
Relative levels of lactic acid (compared with the control group) (glioma cells U87-MG; 36 h): 0.65 ± 0.10

N[C@@H](CC(=O)N1CCn2c(nnc2C(F)(F)F)C1)Cc1cc(F)c(F)cc1F [STG, sitagliptin]
Tumor weight ([1]; H22, sitagliptin experiment, STG 20 mg/kg, Con 1.48 ± 0.34): 0.78 ± 0.31 g
inhibition of tumor growth (inhibition ratio) [1]: 46.12%
fat coefficient (epididymal fat pad) ([2]; 6 weeks, model group 3.96±0.83%, normal group 1.58±0.68%): 3.28±1.14%
Lee's INDEX ([2]; 6 weeks, model group 353.28±9.64, normal group 337.05±9.96): 346.34±9.36
body weight after 6 weeks ([2]; agents in drinking water, FBP 300 mg/kg, STG 20 mg/kg, combination FBP 500 mg/kg+STG 20 mg/kg, model group 47.89±3.34): 46.78 ± 6.1 g
cell viability inhibited (HCT-8; sitagliptin 100 μM): did not affect
viability at 100 µM (HCT-8; Homo sapiens, STG 100 μM, read-out: cell viability (Con = 100)): 95.4 ± 3.79%
protein level of fructose-1,6-bisphosphatase 1 in kidney tissue (Western Blot) [3]: not significantly changed
cytotoxicity at 20 µM (melanoma B16 cell): 16%
viability at 25 µM (Huh-7; Homo sapiens, STG 25 μM, read-out: cell viability (Con = 100)): 92.1 ± 1.35%
cell viability inhibited (Huh-7; sitagliptin 25 μM): no significant difference

CN(C)C(=N)N=C(N)N [Met, metformin]
viability at 200 µM (SW620): 95.9 ± 7.54%
viability at 200 µM (Bel-7402; read-out: cell viability (Con = 100)): 91.7 ± 1.62%
cytotoxicity at 200 µM (Bel-7402; read-out: cell viability inhibited): 5%
Tumor weight ([1]; H22, metformin experiment, Met 150 mg/kg, Con 1.66 ± 0.29): 1.46 ± 0.23 g
inhibition of tumor growth (inhibition ratio) [1]: no significant difference
protein level of fructose-1,6-bisphosphatase 1 in kidney tissue (Western Blot) [3]: not significantly changed
